Test results taken from article PMC10133546, “Simultaneous determination of multiple components in rat plasma by UHPLC-sMRM for pharmacokinetic studies after oral administration of Qingjin Yiqi Granules” (Frontiers in Pharmacology, 2023).
Where two headings read alike, the source gives them in different places.

Columns and labels:
[1] = Pharmacokinetic study in rat plasma after oral administration of QJYQ (UHPLC-sMRM); assay type: in vivo, Sprague-Dawley rats
Procedure: Exion LC AD tandem Blueline 3500 triple quadrupole mass spectrometer (AB SCIEX, Framingham, MA, United States) was used to thirty-three compounds in rat plasma. […] The whole detailed parameters of sMRM were obtained in Supplementary Table S1.
Rat plasma (100 μL) was mixed with 10% formic acid (10 μL) and vortexed for 1 min at room temperature. ISs (10 μL) and methanol/acetonitrile (1/1, v/v) (400 μL) were added and vortexed for 5 min, then centrifuged for 10 min at 14,000 rpm and 4°C. The transported supernatant was condensed to dryness under the flow of nitrogen gas. The dried residue was reconstituted with 70% methanol (100 μL) by vortex-mixing for 5 min and centrifuging at 14,000 rpm for 10 min. Last, 2 μL of the solution were injected into the UHPLC-sMRM system.
The pharmacokinetic study was approved by the Animal Ethics Committee of Tianjin University of Traditional Chinese Medicine (TCM-LAEC2021228). Ten male Sprague-Dawley rats (weight 220–240 g) was kept at the animal center of Tianjin University of Traditional Chinese Medicine (Tianjin, China). […] The sample was transferred right away following a 10 min period of centrifugation at 7000 rpm and 4°C. All plasma samples were frozen and stored at −80°C.
All the pharmacokinetic parameters were calculated using the DAS 1.0 software (Drug and Statistics 1.0, Medical College of Wannan, China). Pharmacokinetic parameters include the maximum drug concentration in plasma (Cmax), the time to achieve maximum drug concentration (Tmax), the area under the plasma concentration-time curve (AUC), elimination half-life (T1/2), and mean residence time (MRT). The pharmacokinetic parameters were computed using the non-compartmental model. All data are expressed as mean ± standard deviation (SD). GraphPad Prism 8.0 (GraphPad Software Inc., La Jolla, CA, United States) software was used to draw the drug-time curve.

[2] = Stability of the working solution (4°C for 1 month); assay type: physicochemical
[3] = Stability of analytes in rat plasma (auto-sampler, freeze-thaw, room temperature, long-term); settings: for Autosampler for 24 h Accuracy (%): autosampler 24 h; for Room temperature for 24 h Accuracy (%): room temperature 24 h; for Freeze thaw cycles Accuracy (%): three freeze-thaw cycles; for −80°C for 1month Accuracy (%): −80°C 1 month
Procedure: The stability of analytes in plasma was evaluated by analyzing 4 QC samples (n = 6). The stability was included auto-sampler stability (keeping the sample in auto-sampler for 24 h), three times of freeze-thaw cycles stability (freezing cycle at −80°C, thawing cycle at room temperature), room temperature stability (storing samples at room temperature for 24 h), long-term stability (storing samples at −80°C for 1 month). […] Accompanying curve was established when testing the sample, calculate and compare the ratio of the actual measured concentration to the theoretical concentration, expressed in accuracy and RSD.

[4] = male, Sprague-Dawley, rat, in vivo, po, 3.15 g/kg

Row | Compound | Working solution Accuracy (%) ([2]; 12.5 ng/mL) | Working solution Accuracy (%) ([2]; 100 ng/mL) | Working solution Accuracy (%) ([2]; 500 ng/mL) | Autosampler for 24 h Accuracy (%) ([3]; 12.5 ng/mL) | Room temperature for 24 h Accuracy (%) ([3]; 12.5 ng/mL) | Freeze thaw cycles Accuracy (%) ([3]; 12.5 ng/mL) | −80°C for 1month Accuracy (%) ([3]; 12.5 ng/mL) | Autosampler for 24 h Accuracy (%) ([3]; 100 ng/mL) | Room temperature for 24 h Accuracy (%) ([3]; 100 ng/mL) | Freeze thaw cycles Accuracy (%) ([3]; 100 ng/mL) | −80°C for 1month Accuracy (%) ([3]; 100 ng/mL) | Autosampler for 24 h Accuracy (%) ([3]; 500 ng/mL) | Room temperature for 24 h Accuracy (%) ([3]; 500 ng/mL) | Freeze thaw cycles Accuracy (%) ([3]; 500 ng/mL) | −80°C for 1month Accuracy (%) ([3]; 500 ng/mL) | Working solution Accuracy (%) ([2]; 1.56 ng/mL) | Autosampler for 24 h Accuracy (%) ([3]; 1.56 ng/mL) | Room temperature for 24 h Accuracy (%) ([3]; 1.56 ng/mL) | Freeze thaw cycles Accuracy (%) ([3]; 1.56 ng/mL) | further results
1 | COC(=O)C1=CO[C@@H](O[C@@H]2O[C@H](CO)[C@@H](O)[C@H](O)[C@H]2O)[C@H]2[C@@H]1C(=O)C[C@@H]2C [verbenalin] | 83.3 | 86.2 | 96.4 | 84.9 | 104.0 | 93.8 | 89.1 | 89.7 | 91.2 | 87.8 | 95.7 | 88.3 | 104.0 | 88.5 | 104.0 | – | – | – | – | AUC(0-t) ([1]; rat, in vivo, po, 3.15 g/kg): 618.13 ± 161.10 ng·h/mL; AUC(0-∞) ([1]; rat, in vivo, po, 3.15 g/kg): 669.34 ± 164.70 ng·h/mL; Cmax ([1]; rat, in vivo, po, 3.15 g/kg): 135.83 ± 52.28 ng/mL; MRT (0-∞) ([1]; rat, in vivo, po, 3.15 g/kg): 7.95 ± 4.85 h; MRT(0-t) ([1]; rat, in vivo, po, 3.15 g/kg): 4.85 ± 0.77 h; T1/2 ([1]; rat, in vivo, po, 3.15 g/kg): 8.37 ± 2.80 h; Tmax ([1]; rat, in vivo, po, 3.15 g/kg): 1.37 ± 0.80 h; Working solution Accuracy (%) ([2]; 50 ng/mL): 89.5%; Autosampler for 24 h Accuracy (%) ([3]; 50 ng/mL): 92.5%; Room temperature for 24 h Accuracy (%) ([3]; 50 ng/mL): 88.9%
2 | O=C1C[C@@H](c2ccc(O[C@@H]3O[C@H](CO)[C@@H](O)[C@H](O)[C@H]3O)cc2)Oc2cc(O)ccc21 [liquiritin] | 94.1 | 100.0 | 86.6 | 108.0 | 94.4 | – | 94.1 | 94.1 | 90.6 | 85.8 | 103.0 | 91.2 | 89.3 | 87.0 | 108.0 | 99.4 | 84.0 | 111.0 | 110.0 | AUC(0-inf) [1, 4]: 16.4 ± 5.06 ng·h/mL; AUC(0-t) [1, 4]: 16.3 ± 5.11 ng·h/mL; Cmax [1, 4]: 7.08 ± 2.25 ng/mL; MRT inf [1, 4]: 6.8 ± 1.19 h; MRT last [1, 4]: 6.4 ± 0.98 h; Tmax ([1]; male, Sprague-Dawley, rat, in vivo, po, 3.15 g/kg, Tmax): 0.52 ± 0.1 h; T1/2 ([1]; rat plasma, oral QJYQ 3.15 g/kg, n = 8, mean ± SD): 4.30 ± 3.09 h
3 | O=C(O)C=Cc1ccc(O)cc1 [p-Coumaric acid] | – | 95.9 | 92.8 | 102.0 | 96.1 | 95.2 | 85.1 | 96.9 | 98.7 | 87.0 | 115.0 | 115.0 | 97.8 | 88.7 | 109.0 | 81.9 | 83.2 | 82.7 | 95.1 | half-life ([1]; male, Sprague-Dawley, rat plasma, oral QJYQ 3.15 g/kg, n = 8, mean ± SD): 1.79 ± 0.38 h; AUC(0-t) ([1]; male, Sprague-Dawley, rat plasma, oral QJYQ 3.15 g/kg, n = 8, mean ± SD, read-out: AUC(0-t)): 381 ± 101 ng·h/mL; AUC(0-inf) ([1]; male, Sprague-Dawley, rat plasma, oral QJYQ 3.15 g/kg, n = 8, mean ± SD, read-out: AUC(0-∞)): 385 ± 126 ng·h/mL; Cmax ([1]; male, Sprague-Dawley, rat plasma, oral QJYQ 3.15 g/kg, n = 8, mean ± SD, read-out: Cmax): 153 ± 33.4 ng/mL; MRT inf ([1]; male, Sprague-Dawley, rat plasma, oral QJYQ 3.15 g/kg, n = 8, mean ± SD, read-out: MRT (0-∞)): 3.63 ± 1.57 h; MRT last ([1]; male, Sprague-Dawley, rat plasma, oral QJYQ 3.15 g/kg, n = 8, mean ± SD, read-out: MRT(0-t)): 3.03 ± 1.01 h; −80°C for 1month Accuracy (%) ([3]; 1.56 ng/mL): 110.0%
